Source: patent publication US12466814B2, “Sterically shielded heptamethine cyanine dyes” (UNIVERSITY OF NOTRE DAME DU LAC, priority 2020, dated 2025)
Marks after values point to notes of the source that are not given here.

Experiments:
[1] = Absorption and emission spectral properties of dyes; format: physicochemical; conditions: for ε: monomer band
Experimental: General. Reagents and solvents were purchased from Sigma-Aldrich, VWR, Oakwood, Thermo Fisher and TCI and used without further purification unless stated otherwise. Anhydrous tetrahydrofuran was distilled with metal sodium and benzophenone. Column chromatography was performed using Biotage SNAP Ultra columns. ^1H, ^13C and ROESY NMR spectra were recorded on a Bruker 500 NMR spectrometer. Chemical shifts are presented in ppm and referenced by residual solvent peak. High-resolution mass spectrometry (HRMS) was performed using a time-of-flight (TOF) analyzer with electrospray ionization (ESI). Absorption spectra were recorded on an Evolution 201 UV/vis spectrometer with Thermo Insight software. Fluorescence spectra were collected on a Horiba Fluoromax-4 fluorometer with FluoroEssence software. Analyte solutions were prepared in HPLC grade water (Sigma-Aldrich), phosphate buffered saline (Thermo Fisher), fetal bovine serum (Sigma-Aldrich) or buffer B (575 mM NaCl, 37.5 mM NaH2PO4 and 0.75 mM EDTA in water, pH 7.5). All absorption and fluorescence spectra were collected using quartz cuvettes (1 mL, 1 cm path length; for emission and excitation spectra, slit width=3 nm).

[2] = Quantum yield and fluorescence brightness relative to UL766; format: physicochemical; conditions: for Brightness (fluorescence brightness = ε × QY): PBS pH 7.4, error ±15%; for Quantum yield: pH 7.4 PBS, relative to UL766, error ±10%
Source text: The fluorescence spectrum of each solution was obtained with excitation at 730 nm, and the integrated area was used in the quantum yield calculation by the following equation:
[formula] where η is the refractive index of the solvent, I is the integrated fluorescence intensity, and A is the absorbance at a chosen wavelength. […]

[3] = Dye self-aggregation by absorption/excitation spectra; format: physicochemical; conditions: in water / aqueous media, absorption spectra
[4] = tested on: integrin positive A549 cells; test: Cell uptake by fluorescence microscopy; format: cell-based, human
Experimental: FIG. 19. […] The two targeted dyes contain a cyclic peptide cRGDfK sequence for targeting the overexpressed cell surface integrin receptors. The blocking experiments added 100 μM of free cRGDfK prior to the incubation with RGD probes. NIR heptamethine fluorescence is shown in green, and Hoechst nuclear stain is shown in blue. Scale bar=30 μm. (c) Quantification of intracellular mean fluorescence intensities as a measure of NIR dye internalization (6 micrographs per condition and 3 replicates). * indicates p<0.05, and ** p<0.01.
Cell Microscopy. For fluorescence microscopy, A549 cells were seeded and grown to 70% confluency on an 8-well chambered coverglass (Lab-Tek, Nunc, USA). […] For blocking, 100 μM of cRGDfK was added to the cells, 10 min prior to dye treatment and remained present during NIR dye incubation. After dye incubation, the cells were washed several times with PBS, fixed with 4% cold paraformaldehyde for 20 min at room temperature and washed again with PBS. […] Next, a triangle threshold was employed and used to calculate the average mean pixel intensity (MPI) where overall averages and SEM were calculated and plotted in GraphPad Prism. A total of 6 micrographs were evaluated per condition and each experiment was conducted in triplicate.

[5] = Photostability, Xenon lamp irradiation; format: physicochemical
Experimental: FIG. 2. Two separate photostability studies. (a) Lamp irradiation: Four separate cuvettes, each containing 1 μM dye in PBS buffer, pH 7.4, were irradiated by a 150 W Xenon lamp with a 620 nm long-pass filter. The plot of normalized dye absorbance versus time was fit to a one-phase exponential decay. […] The length scale bar on each NIR fluorescence image is 1 cm.
Photostability Measurements. Lamp Irradiation: A solution of dye (1 μM) in PBS buffer, pH 7.4, was placed in a 1×1×4 cm^3 cuvette that was exposed to air and irradiated at a distance of 3 cm by a 150 W Xenon lamp with a 620 nm long-pass filter. An absorbance spectrum was recorded every 10 min. The normalized maximum absorbance of dye was plotted against time and fitted to a non-linear regression, one-phase exponential decay. […] A 1.5 mL vial containing the solution was irradiated at a distance of 3 cm by a 150 W Xenon lamp with a 620 nm long-pass filter.

[6] = Mouse biodistribution in normal mice; format: in vivo, SKH1 hairless mice; conditions: 10 nmol
Source text: FIG. 20. a) Representative whole-body NIR fluorescence images of living SKH1 hairless mice at 0, 1, and 2 hr after intravenous injection of either ICG or s775z (10 nmol). b) In vivo biodistribution of s775z and ICG in normal mice. The SKH1 hairless mice (N=4) received an intravenous injection of ICG or s775z (10 nmol) and were sacrificed after 2 hr. The mean pixel intensity (MPI) for each excised organ is relative to the MPI for thigh muscle from the same animal; error bars indicate ±SEM. * indicates p<0.05. Note: the y-axis is truncated.
Mouse Biodistribution. All animal experiments were conducted under protocols that were approved by the Notre Dame Institutional Animal Care and Use Committee. Female SKH1 hairless mice (N=4) were divided into two cohorts and received a retro-orbital injection of ICG or s775z (50 μL, 10 nmol). […] The mice were then injected with dye and imaged at 0, 1, and 2 hr. At 2 hr, the mice were anesthetized, sacrificed via cervical dislocation, and blood was collected from the heart. The lower cavity of the mice was then exposed and imaged. […] The images were pseduocolored “fire,” and an arbitrary maximum fluorescence value was chosen. […] The amount of dye was then quantified by manually drawing a region of interest around each organ. The MPI of each organ was measured and divided by the MPI for thigh muscle from the same animal.

[7] = tested on: subcutaneous tumor (human A549 cells); test: Mouse tumor imaging; format: in vivo, nude mice; conditions: A549 tumor mice, 10 nmol
Experimental: […]. The fluorescence mean pixel intensity (MPI) of two regions of interest (equal sizes) on the fluorescent images (tumor or background site on the opposite flank), at different post-injection time points, were measured using ImageJ2 software and used to calculate values for Tumor MPI, and Tumor-to-Background Ratio. * indicates p<0.05, ** p<0.01, and *** p<0.001.
Mouse Tumor Imaging. All animal experiments were conducted under protocols that were approved by the Notre Dame Institutional Animal Care and Use Committee. Female Foxn1 nude mice (N=8) were inoculated with A549 cells (1×10^6) in Corning Matrigel matrix on the right rear flank. […]. The mice were then injected with dye and imaged at 0, 0.5, 1, 2, and 3 hr. At 3 hr, the mice were anesthetized and sacrificed via cervical dislocation, and blood was collected from the heart. To simulate a surgery, the mice were imaged prior to surgery, the fluorescent tumor was fully removed, and the mice were imaged again. […] For image processing, the whole body and tumor images were pseudocolored “fire,” and an arbitrary maximum fluorescence value was chosen. Biodistribution analysis was performed by importing NIR fluorescence images of the excised organs from each mouse into ImageJ2 and the amount of dye in each organ was quantified by manually drawing a region of interest around each organ and determining the fluorescence MPI. […]

half-life at 1 μM ([5]; PBS buffer in a cuvette exposed to air, pH 7.4 PBS, 150 W Xenon lamp irradiation, 620 nm long-pass filter, 23° C., 1 μM dye, read-out: t1/2, half-life of first-order decay (converted))	k, rate constant of first-order decay ([5]; pH 7.4 PBS, 150 W Xenon lamp irradiation, 620 nm long-pass filter, 23° C., 1 μM dye)	Order of photostabilities ([5]; separate cuvettes, dye in PBS, Xenon lamp >620 nm)	Clearance pathway / biodistribution ([6]; sacrificed after 2 hours)	SMILES	SS (Stokes shift) ([1]; PBS pH 7.4)	λabs max, aggregate (a) band ([1]; PBS pH 7.4, room temperature)	λem max ([1]; PBS pH 7.4, room temperature)	λabs max ([1]; PBS pH 7.4, room temperature, monomer (m) band where an aggregate band is also listed)	ε ([1]; PBS pH 7.4, room temperature)	Brightness (fluorescence brightness = ε × QY) [2]	Quantum yield [2]	Aggregation state [3]	Cell uptake with blocking ([4]; A549 cells pre-incubated with excess (100 μM) cRGDfK)	Cell uptake ([4]; A549 cells, 10 μM dye, 1 hr, 37° C.)	Clearance from bloodstream ([6]; retro-orbital injection, live imaging over 2 hr)	Clearance and background retention [7]
–	–	–	–	CC1(C)C(/C=C/C2=C(c3ccc(C(=O)NCCCC[C@@H]4NC(=O)[C@@H](Cc5ccccc5)NC(=O)[C@H](CC(=O)O)NC(=O)CNC(=O)[C@H](CCCNC(=N)N)NC4=O)cc3)C(=C/C=C3/N(CCC[N+](C)(C)C)c4ccc(S(=O)(=O)O)cc4C3(C)C)/CCC2)=[N+](CCC[N+](C)(C)C)c2ccc(S(=O)(=O)O)cc21 [Dye 756z-RGD]	16 nm	682 (a)/ nm	773 nm	757 (m) nm	147,000 M^−1cm^−1	16,000	10.7^[b] %	concentration-dependent mixture of fluorescent monomer and non-fluorescent H-aggregate	successfully blocked	much higher cell uptake	–	–
13.3 min	0.00087 s⁻¹	s775z>756z>UL766>ICG	accumulated in the intestines and liver	CC1(C)C(/C=C/C=C/C=C/C=C2\N(CCCCS(=O)(=O)O)c3ccc4ccccc4c3C2(C)C)=[N+](CCCCS(=O)(=O)[O-])c2ccc3ccccc3c21 [ICG, Indocyanine Green]	–	–	–	–	71,000 M^−1cm^−1	1,600	2.3^[b] %	–	–	–	quickly cleared from the mouse bloodstream	–
–	–	–	–	COCCOCCOCCOCc1cn(Cc2cc(C(=O)NCCCC[C@@H]3NC(=O)[C@@H](Cc4ccccc4)NC(=O)[C@H](CC(=O)O)NC(=O)CNC(=O)[C@H](CCCNC(=N)N)NC3=O)cc(Cn3cc(COCCOCCOCCOC)nn3)c2C(=C\C=C\C2=[N+](CCC[N+](C)(C)C)c3ccc(S(=O)(=O)O)cc3C2(C)C)/C=C/C=C2/N(CCC[N+](C)(C)C)c3ccc(S(=O)(=O)O)cc3C2(C)C)nn1 [s775z-RGD]	–	–	–	–	–	–	–	–	–	–	–	rapid, near-exclusive renal clearance from the bloodstream
